“And” between values parts separate entries of the source, which are not always exact repeats. Equal entries are not always repeated.
Assays:
Nurr1-LBD [1] = target: T1, Nurr1-LBD (Homo sapiens, UniProt P43354); experiment: [3H]-CQ radioligand competition binding assay; conditions: Fig. 1h
Experimental: Saturation and competition assays were performed as previously described. For saturation assay, 0.2 µM of Nurr1-LBD and 125-10,000 nM of [^3H]-CQ were incubated in binding buffer (20 mM sodium acetate buffer (pH 5.2)) at 4 °C overnight. […] Assay mixtures were applied to GF/B filters (Brandel Inc.) to capture Nurr1-LBD bounded ligands. […] All graphs and IC50 values were generated using the non-linear regression program in GraphPad Prism version 8.0.2.

Nurr1-LBD [2] = target: T1, Nurr1-LBD; experiment: TR-FRET competition assay with HCQFluo; type: binding; conditions: Fig. 1i
Experimental: TR-FRET assay was performed in PPI Terbium (Tb) detection buffer (PerkinElmer) and contained 0.2 µM of Nurr1-LBD, 0.5 µM of fluorescence-labeled hydroxy-CQ (HCQFluo; Proimaging) and serial concentrations of CQ, 4A7C-301 or RA (10^−4–10^6 nM). Rabbit anti-Nurr1 antibody (3 nM; prepared in our lab) and anti-rabbit IgG-Tb (1:400; Cisbio, 61PARTAF) were included in the assay solution as a donor complex. Assay solutions were loaded in a 384-well OptiPlate™ (PerkinElmer). After 2 h incubation in the dark at room temperature, the FRET signal was measured by excitation at 340 nm and emission at 520 nm for fluorescein and 495 nm for Tb using a VICTOR Nivo plate reader (PerkinElmer). Data were fit using the non-linear regression program in GraphPad Prism version 8.0.2.

T1 sequence (P43354 360-595 limits assumed, species assumed): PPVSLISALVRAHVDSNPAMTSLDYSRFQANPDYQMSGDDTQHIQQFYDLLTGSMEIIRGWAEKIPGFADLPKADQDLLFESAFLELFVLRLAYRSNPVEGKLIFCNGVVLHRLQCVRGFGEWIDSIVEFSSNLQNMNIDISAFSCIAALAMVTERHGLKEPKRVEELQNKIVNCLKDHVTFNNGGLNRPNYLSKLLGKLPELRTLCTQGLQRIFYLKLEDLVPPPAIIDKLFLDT

CC1=C(/C=C/C(C)=C/C=C/C(C)=C/C(=O)O)C(C)(C)CCC1 [RA, Retinoic acid]
% of Specific binding (Nurr1-LBD [1]; competitor conc. 0.0001 (µM)): 87.8740% and 90.3786% and 97.0000% | % of Specific binding (Nurr1-LBD [1]; competitor conc. 0.001 (µM)): 101.4488% and 96.8455% and 90.6575% | % of Specific binding (Nurr1-LBD [1]; competitor conc. 0.01 (µM)): 93.0895% and 89.2521% and 94.1409% | % of Specific binding (Nurr1-LBD [1]; competitor conc. 0.1 (µM)): 82.0986% and 95.6235% and 83.0156% | % of Specific binding (Nurr1-LBD [1]; competitor conc. 1 (µM)): 87.3597% and 82.6821% and 79.1883% | % of Specific binding (Nurr1-LBD [1]; competitor conc. 10 (µM)): 63.0000% and 75.1862% and 67.5572% | % of Specific binding (Nurr1-LBD [1]; competitor conc. 100 (µM)): 42.2356% and 49.1037% and 43.9315% | % of Specific binding (Nurr1-LBD [1]; competitor conc. 1000 (µM)): 32.2111% and 35.0331% and 30.1369% | % of Specific binding (Nurr1-LBD [1]; competitor conc. 10000 (µM)): 18.6132% and 23.0315% and 23.7161% | % of Specific binding (Nurr1-LBD [1]; competitor conc. 100000 (µM)): 12.2908% and 10.3348% and 16.3962% | % of Specific binding (Nurr1-LBD [1]; competitor conc. 1000000 (µM)): 8.1147% and 11.0894% and 7.4333% | Interaction [HTRF] (Nurr1-LBD [2]; 0.05 µM): 2835.2000 and 2760.8790 and 2798.0390 | Interaction [HTRF] (Nurr1-LBD [2]; 0.1 µM): 2218.7830 and 2060.7720 and 2139.7770 | Interaction [HTRF] (Nurr1-LBD [2]; 0.5 µM): 1239.9030 and 1522.7770 and 1381.3400 | Interaction [HTRF] (Nurr1-LBD [2]; 1 µM): 1217.7040 and 1012.7510 and 1115.2270 | Interaction [HTRF] (Nurr1-LBD [2]; 5 µM): 750.0158 and 977.4576 and 863.7367 | Interaction [HTRF] (Nurr1-LBD [2]; 10 µM): 824.6545 and 715.3943 and 770.0244 | Interaction [HTRF] (Nurr1-LBD [2]; 50 µM): 734.0843 and 751.1574 and 742.6208 | Interaction [HTRF] (Nurr1-LBD [2]; 100 µM): 637.6497 and 793.8474 and 715.7485 | Interaction [HTRF] (Nurr1-LBD [2]; 200 µM): 603.5579 and 705.9392 and 654.7485

— PMC10354055, “An optimized Nurr1 agonist provides disease-modifying effects in Parkinson’s disease models” (Nature Communications, 2023)
